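Cultured in 96-well plates, cells were exposed to test compound for 48 hours across five concentrations. Abbreviation: GI50, concentration required for 50% inhibition of growth.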 Active and inactive are the calls of the source. Cut-off read from the data, not from the text of the source: active = GI50 up to about 1.1 µM and inactive = higher. Some results are limits rather than exact numbers.

Experimental findings from ChEMBL document CHEMBL1201862, “PubChem BioAssay data set” (2004) are described below.

What all share (test): DTP human tumour cell line panel, 48 h
The test system of assay [1] is A498.
For assay [2], the system named is BT-549.
In assay [3] the test system is DU-145.
The subject of assay [4] is HOP-92.
In assay [5] the test system is Hs-578T.
For assay [6], the system named is IGROV-1.
Assay [7] deals with MCF7.
Assay [8] has as its system MDA-MB-231.
Assay [9] has as its system MDA-MB-435.
Assay [10] deals with MDA-N.
Assay [11] deals with MOLT-4.
The test system of assay [12] is PC-3.
Assay [13] concerns SF-295.
In assay [14] the test system is SF-539.
Assay [15] has as its system SK-OV-3.
Assay [16] deals with SNB-19.
Assay [17] has as its system T47D.
For assay [18], the system named is NCI/ADR-RES.
In assay [19] the test system is 786-0.
Assay [20] deals with KM-20L2.

In general, GI50 refers to the concentration that inhibits growth by half. In the case of `COc1ccc(-c2c3c(nc4nc(SC)nc(SC)c24)CCCC3)cc1OC`, the GI50 is > 100 µM (inactive) in [1]; > 100 µM (inactive) in [2]; > 100 µM (inactive) in assay [3]; 40.2 µM (inactive) in assay [4]; 19.1 µM (inactive) in assay [5]; > 100 µM (inactive) in assay [6]. Also, the GI50 in [7] is 41.5 µM (inactive); in [8], 40.6 µM (inactive); in assay [9], 54.3 µM (inactive); in assay [10] it was 29.9 µM (inactive); in [11], 33.4 µM (inactive); in [12] it was 60 µM (inactive). Moreover, the GI50 in assay [13] was 57.5 µM (inactive); in [14], > 100 µM (inactive); in assay [15], > 100 µM (inactive); in assay [16], > 100 µM (inactive); in [17], 47.6 µM (inactive).
On to `NC12CCC(CC1=O)C2` (stereo not given), for which the GI50 in assay [3], in [4], in assay [5], in [6], in assay [7] and in assay [8] was > 100 µM (inactive) throughout. Besides, the GI50 in assay [9], in assay [10], in assay [11], in [18], in assay [12] and in assay [13] was > 100 µM (inactive) each time. In addition, the GI50 in assay [14], in [15] and in assay [17] was > 100 µM (inactive) each time.
Take `CO/C(=N\N=C\c1ccc(Cl)c(Cl)c1)c1ccncc1`: the GI50 is > 10 µM (inactive) in assay [19]; 4.26 µM (inactive) in assay [4]; > 10 µM (inactive) in [6]; > 10 µM (inactive) in [7]; > 10 µM (inactive) in assay [10]; > 10 µM (inactive) in assay [11]. Moreover, the GI50 in assay [18], in [12], in [13], in [14], in [15] and in [16] was > 10 µM (inactive) in each case. Also, the GI50 in assay [17] was > 10 µM (inactive).
In the case of `CO[C@]12S[C@@H]3CCCC[C@@]31C(C)(C)C(=O)N2c1ccccc1`, the GI50 was 43.2 µM (inactive) in [19]; > 100 µM (inactive) in assay [1]; 27.4 µM (inactive) in assay [2]; 55.3 µM (inactive) in [3]; 38 µM (inactive) in assay [4]; 75 µM (inactive) in assay [5]. Moreover, the GI50 in [6] was 46.2 µM (inactive); in assay [7] it was 27.4 µM (inactive); in [8], 42.2 µM (inactive); in assay [9], 33.7 µM (inactive); in [10], 42.2 µM (inactive); in assay [11] it was 21.7 µM (inactive). Also, the GI50 in assay [18] was 23 µM (inactive); in [12], 23.6 µM (inactive); in [13] it was 16 µM (inactive); in [14], 4.11 µM (inactive); in [15], 25.8 µM (inactive); in [16], > 100 µM (inactive). Also, in assay [17], the GI50 is 30.7 µM (inactive).
Turning to `CC(=O)N1N=C(c2ccc3ccccc3c2O)CC1c1cccs1` (stereo not given), the GI50 is 12.7 µM (inactive) in [1]; 19.5 µM (inactive) in assay [2]; 34 µM (inactive) in assay [3]; 33.7 µM (inactive) in [4]; 28.6 µM (inactive) in [5]; 11.4 µM (inactive) in assay [6]. Also, the GI50 in assay [7] is 10.9 µM (inactive); in [8] it was 20.6 µM (inactive); in assay [9], 18 µM (inactive); in [10], 20.2 µM (inactive); in assay [11], 4.26 µM (inactive); in assay [18] it was 13.6 µM (inactive). Also, the GI50 in assay [12] was 11.1 µM (inactive); in assay [13] it was 21.7 µM (inactive); in assay [14], 22.2 µM (inactive); in [15], 44.3 µM (inactive); in [17], 11.6 µM (inactive).
Consider `COc1ccc(C[C@H](N)C(=O)N2C[C@H](CO)C[C@H](n3cnc4c(N(C)C)ncnc43)C2)cc1`, for which the GI50 is 57 µM (inactive) in [4]; > 100 µM (inactive) in assay [6]; > 100 µM (inactive) in [20]; > 100 µM (inactive) in assay [11]; > 100 µM (inactive) in [14]; > 100 µM (inactive) in assay [15]. Also, in [16], the GI50 was > 100 µM (inactive).
For `O=c1cc(-c2nc3ccccc3[nH]2)[nH]c2nc(-c3nc4ccccc4[nH]3)cc(-c3ccc(Cl)cc3)c12`, the GI50 in assay [2] is 35.9 µM (inactive); in assay [3], 32.8 µM (inactive); in [4] it was 5.52 µM (inactive); in assay [5], 30.5 µM (inactive); in [6], 1.42 µM (inactive); in assay [7], 12.9 µM (inactive). Also, the GI50 in assay [8] was 15.8 µM (inactive); in [9], 15.7 µM (inactive); in assay [10] it was 20.5 µM (inactive); in assay [11], 19.4 µM (inactive); in assay [18] it was 28.4 µM (inactive); in assay [12], 19.5 µM (inactive). The GI50 in [13] was 21.5 µM (inactive); in assay [14] it was 15.9 µM (inactive); in assay [15], 15.3 µM (inactive); in assay [16], 46.3 µM (inactive); in [17], 14.4 µM (inactive).
`COC1C(=[N+]=[N-])C(=O)NC(=O)N1C1OC(COC(c2ccccc2)(c2ccccc2)c2ccccc2)C(O)C1O` (stereo not given): the GI50 is 20.1 µM (inactive) in assay [1]; 20.6 µM (inactive) in [6]; 17.2 µM (inactive) in assay [20]; 18.2 µM (inactive) in assay [11]; 18 µM (inactive) in assay [13]; 19.9 µM (inactive) in [14]. Further, the values for the GI50 in assay [15] and in assay [16] were 20.5 µM (inactive) and 19.7 µM (inactive), respectively.
As for `CCOC(=O)C(C(C)=O)C1CC=CC1` (stereo not given), the GI50 in assay [19], in assay [4], in assay [6], in [20], in assay [11] and in assay [13] was > 100 µM (inactive) throughout. For the same compound, the GI50 in assay [15] and in assay [16] was > 100 µM (inactive) each time.
In the case of `CCCN(CCC)CCc1ccc(OC2=CCN(C)CC2)cc1`, the GI50 is 39.9 µM (inactive) in assay [19]; 29.8 µM (inactive) in assay [2]; > 100 µM (inactive) in [3]; 40.6 µM (inactive) in assay [5]; 67.3 µM (inactive) in assay [6]; > 100 µM (inactive) in assay [7]. For the same compound, the GI50 in assay [8] is > 100 µM (inactive); in assay [9] it was 33 µM (inactive); in assay [10] it was 36.6 µM (inactive); in assay [11], 43.3 µM (inactive); in [18], > 100 µM (inactive); in [12], > 100 µM (inactive). Moreover, the GI50 in [13], in assay [15], in assay [16] and in assay [17] was > 100 µM (inactive) in each case.
Regarding `OC[C@@H](O)[C@H]1NC[C@@H](O)[C@H]1O`, the GI50 in [19], in assay [1], in [2], in assay [3], in assay [4] and in assay [5] was > 100 µM (inactive) each time. Moreover, the GI50 in [6], in [7], in [9], in assay [10], in [11] and in [12] was > 100 µM (inactive) in each case. Further, the GI50 in assay [13], in [14], in assay [15] and in assay [16] was > 100 µM (inactive) in each case.
As to `O=c1c(C(c2ccccn2)c2c(O)oc3cc(O)ccc3c2=O)c(O)oc2cc(O)ccc12`, the GI50 in assay [19], in assay [1], in [2], in assay [3], in assay [4] and in assay [5] was > 100 µM (inactive) each time. The GI50 in assay [6], in assay [7], in [8], in [9], in [10] and in assay [11] was > 100 µM (inactive) throughout. In addition, the GI50 in assay [18], in assay [12], in assay [13], in assay [14], in assay [15] and in [16] was > 100 µM (inactive) in each case. In assay [17], the GI50 was > 100 µM (inactive).
For `CC(=O)O[C@H]1CC[C@]2(C=O)[C@H]3CC[C@]4(C)[C@@H](C5=CC(=O)OC5)CC[C@]4(O)[C@@H]3CC[C@]2(O)C1` [STROPHANTHIDIN ACETATE], the GI50 in [19] was 0.212 µM (active); in assay [1] it was 0.264 µM (active); in [2], 0.144 µM (active); in assay [3], 0.164 µM (active); in [4], 0.424 µM (active); in [5] it was 0.45 µM (active). Further, the concentration for 50% growth inhibition (GI50) in assay [6] is 0.31 µM (active); in assay [8], 0.769 µM (active); in assay [9], 0.272 µM (active); in [10], 0.282 µM (active); in assay [11] it was 0.0262 µM (active); in assay [18], 0.197 µM (active). In addition, the GI50 in [12] is 0.264 µM (active); in assay [13], 0.175 µM (active); in [14], 0.13 µM (active); in assay [15] it was 0.222 µM (active); in assay [16] it was 0.608 µM (active); in assay [17], 0.407 µM (active).
